The source of these data is article PMC5573420, “Correlation between human ether‐a‐go‐go‐related gene channel inhibition and action potential prolongation” (British Journal of Pharmacology, 2017).

Each structure is given as a SMILES string. Read-outs that look alike come from different tables or passages of the source.

The test system of one series is hiPSC-CMs. The experiment in a line: Optical measurement of action potential duration (APD90) in hiPSC-CMs using voltage-sensitive dye di-4-ANEPPS. The following applies: for Maximal AP prolongation: maximal level over concentrations tested. Here is the method: The plates were then incubated at 37°C, 5% CO2. Forty‐eight hours post‐thaw, 100% of the plating medium was replaced with CDI Maintenance Medium (CDI, CMC‐100‐120‐001), and further, 100% media changes were performed every 2 days after that.
Afterwards, the medium containing VSD was replaced by fresh serum‐free medium, and the cells were returned to the incubator. The multi‐well plate was placed in an environmentally controlled stage incubator (37°C, 5% CO2, water‐saturated air atmosphere) (Okolab Inc, Burlingame, CA, USA) of the CelIOPTIQ platform (Clyde Biosciences Ltd, Glasgow, Scotland). The di‐4‐ANEPPS fluorescence signal was recorded from a 0.2 × 0.2 mm area using a 40× (NA 0.6) objective lens. Excitation wavelength was 470 ± 10 nm using a light‐emitting diode (LED), and emitted light was collected by two photomultipliers (PMTs) at 510–560 and 590–650 nm respectively. LED, PMT, associated power supplies and amplifiers were supplied by Cairn Research Ltd (Kent, UK). […] A 20 s recording was then taken 30 min after exposure to the drug or vehicle with only one concentration applied per well. The records were subsequently analysed offline using proprietary software (CellOPTIQ). The procedure was repeated from four to five times, and parallel matched control (vehicle) measurements were taken on cardiomyocytes with equivalent concentrations of vehicle (DMSO). AP parameters were measured, including APD at 50, 75 and 90% repolarization (APD50, APD75 and APD90 respectively). Data are given as % change from control for the treated groups (vehicle, control and drug). This allowed a single comparison to be made at each concentration, and every experiment was performed with its own set of controls (vehicle). No data were used more than once.

The next series concerns the target hERG channels (Homo sapiens, UniProt Q12809). The experiment in a line: hERG current inhibition, automated planar patch clamp in HEK293 cells stably expressing hERG. On the procedure: Currents were low‐pass filtered at 10 kHz using the internal Bessel filter and sampled at 25 kHz. The extracellular solution for hERG current recording contained 140 mM NaCl, 4 mM KCl, 2 mM CaCl2, 1 mM MgCl2,5 mM D‐glucose and 10 mM HEPES (pH 7.4) (Sigma‐Aldrich). The intracellular solution for hERG current recording contained 50 mM KCl, 10 mM NaCl, 60 mM KF, 20 mM EGTA and 10 mM HEPES (pH 7.2). The extracellular solution for measuring sodium currents in HEK cells stably expressing the human clone of Nav1.5 (GenBank M77235) contained 4 mM KCl, 20 mM NaCl, 1.8 mM CaCl2, 0.75 mM MgCl2, 5 mM HEPES, 120 mM choline chloride and pH 7.4 using NaOH. The intracellular solution for sodium current recording contained 120 mM CsF, 20 mM CsCl, 5 mM EGTA, 5 mM HEPES and pH 7.4 using CsOH. All chemicals were obtained from Sigma‐Aldrich Chemie GmbH (Taufkirchen, Germany). The compound solutions were applied by means of the automated NPC‐16 Patchliner planar patch‐clamp platform.
Data are presented as mean ± SEM for at least five cells from two different batches or for three independent measurements with HEK293 cells.
The concentration–inhibition relationships were analysed by plotting the normalized values of peak tail current versus peak tail steady current in the presence of the respective cumulatively applied compound concentrations (Figure 4B, C). Data points were fitted using Hill equation.
On the technique in general: The hERG channel carries a current that helps repolarise heart muscle cells.

The test system of a further series is hERG potassium channels. The following applies: cited from earlier work.
[1] abbreviates: Homo sapiens, 0.5 h, read-out: Changes in APD90 in hiPSC-CMs.
Where [2] appears, read: Homo sapiens, read-out: D150 (concentration that prolongs the AP by 50%), APD90 in hiPSC-CMs.
Where [3] appears, read: read-out: Ki binding studies, radioligand binding, ref Shagufta et al 2009.
Setting [4] is: Homo sapiens, 0.5 h, read-out: Changes in APD90 in hiPSC-CMs, 1 nM, 30 min exposure.
The mark [5] stands for this setting: Homo sapiens, 0.5 h, read-out: Changes in APD90 in hiPSC-CMs, 10 nM, 30 min exposure.
The mark [6] stands for this setting: Homo sapiens, 0.5 h, read-out: Changes in APD90 in hiPSC-CMs, 30 nM, 30 min exposure.
[7] abbreviates: Homo sapiens, 0.5 h, read-out: Changes in APD90 in hiPSC-CMs, 100 nM, 30 min exposure.
Setting [8] is: Homo sapiens, 0.5 h, read-out: Changes in APD90 in hiPSC-CMs, 300 nM, 30 min exposure.
Where [9] appears, read: Homo sapiens, read-out: D150 (concentration that prolongs the AP by 50%).

Chain of hERG channels (Q12809 whole entry): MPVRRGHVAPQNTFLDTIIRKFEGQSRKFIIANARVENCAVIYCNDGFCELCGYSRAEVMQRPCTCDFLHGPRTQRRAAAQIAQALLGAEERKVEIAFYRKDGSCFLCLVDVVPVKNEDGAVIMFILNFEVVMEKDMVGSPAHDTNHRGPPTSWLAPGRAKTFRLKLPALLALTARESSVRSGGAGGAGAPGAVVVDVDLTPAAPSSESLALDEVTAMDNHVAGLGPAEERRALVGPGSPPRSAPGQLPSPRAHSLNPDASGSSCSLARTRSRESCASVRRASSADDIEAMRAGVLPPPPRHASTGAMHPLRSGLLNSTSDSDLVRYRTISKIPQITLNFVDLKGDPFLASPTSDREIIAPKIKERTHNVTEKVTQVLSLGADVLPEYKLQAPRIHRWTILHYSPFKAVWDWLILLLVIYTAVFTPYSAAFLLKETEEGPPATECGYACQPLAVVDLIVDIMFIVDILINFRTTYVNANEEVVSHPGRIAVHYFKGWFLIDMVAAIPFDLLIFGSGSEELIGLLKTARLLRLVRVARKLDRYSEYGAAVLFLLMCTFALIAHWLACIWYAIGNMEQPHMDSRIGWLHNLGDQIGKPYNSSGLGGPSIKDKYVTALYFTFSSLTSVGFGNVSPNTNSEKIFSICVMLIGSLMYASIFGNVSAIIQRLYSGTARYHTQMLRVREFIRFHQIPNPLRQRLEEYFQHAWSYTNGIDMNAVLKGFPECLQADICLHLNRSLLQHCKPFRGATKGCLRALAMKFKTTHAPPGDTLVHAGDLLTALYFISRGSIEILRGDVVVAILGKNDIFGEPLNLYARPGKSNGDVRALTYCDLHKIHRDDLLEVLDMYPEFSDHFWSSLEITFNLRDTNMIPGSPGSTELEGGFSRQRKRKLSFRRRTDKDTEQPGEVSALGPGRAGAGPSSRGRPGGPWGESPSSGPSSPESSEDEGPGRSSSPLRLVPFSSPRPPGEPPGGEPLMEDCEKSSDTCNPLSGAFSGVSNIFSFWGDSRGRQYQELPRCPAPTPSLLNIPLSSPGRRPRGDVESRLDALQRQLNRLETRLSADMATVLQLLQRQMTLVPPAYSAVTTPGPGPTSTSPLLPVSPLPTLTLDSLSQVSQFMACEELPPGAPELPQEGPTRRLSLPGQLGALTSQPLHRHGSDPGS

One may read the IC50 as the concentration needed to halve the response being measured. One may read the Ki as a dissociation constant, usually derived from enzyme kinetics or from competition with a known ligand. Consider `CN(CCOc1ccccc1)CCc1ccccc1` [Dofe30], for which, in the series on hiPSC-CMs (setting [1]), the activity at 0.01 µM is 99%, the activity at 0.03 µM came to 92%, the activity at 0.1 µM turned out to be 105% and the activity at 0.3 µM is 190%. For the same molecule, the activity at 1 µM in the series on hiPSC-CMs (setting [1]) stood at 140%. In addition, the EC (50% APD prolongation) in the series on hiPSC-CMs (setting [2]) worked out at 0.213 µM. For the same molecule, the “Incidence of EADs” value in the series on hiPSC-CMs (hiPSC-CMs) is on record as “without (if any) incidence of EADs”. This molecule also registered a half-inhibitory concentration (IC50) at hERG channels of 297 ± 77.5 nM. Further, the inhibition constant (Ki) in the series with hERG potassium channels (setting [3]) is above 10000 nM.
Take `CN(CCOc1ccc(Cl)cc1)CCc1ccc(Cl)cc1` [Dofe31]: the “Incidence of EADs” value with hiPSC-CMs is reported as “without (if any) incidence of EADs”. Further, in the series on hiPSC-CMs (setting [1]), the activity at 0.001 µM was found to be 127%, the activity at 0.01 µM was found to be 100%, the activity at 0.03 µM was 103% and the activity at 0.1 µM came out at 108%. Further, in the series on hiPSC-CMs (setting [1]), the activity at 0.3 µM was found to be 214% and the activity at 1 µM was determined as 296%. The EC (50% APD prolongation) in the series with hiPSC-CMs (setting [2]) is 0.151 µM.
As for `Cc1ccc(CCN(C)CCOc2ccc(C)cc2)cc1` [Dofe33], the “Effect on APD90 / AP prolongation (in words)” value with hiPSC-CMs was “negligible effect on APD90 prolongation until 100 nM”. Moreover, the “Maximal AP prolongation” value in the series on hiPSC-CMs (hiPSC-CMs) was determined as 250%.
Turning to `CN(CCOc1ccc([N+](=O)[O-])cc1)CCc1ccc([N+](=O)[O-])cc1` [Dofe35], the activity at 0.001 µM with hiPSC-CMs (setting [4]) is 102%. For the same molecule, the activity at 0.01 µM in the series on hiPSC-CMs (setting [5]) came to 159%. Further, in the series on hiPSC-CMs (setting [6]), the activity at 0.03 µM was 770%. Moreover, the activity at 0.1 µM in the series on hiPSC-CMs (setting [7]) turned out to be 746%. Also, the activity at 0.3 µM with hiPSC-CMs (setting [8]) was found to be 650%. Besides, the EC (50% APD prolongation) in the series on hiPSC-CMs (setting [9]) turned out to be 0.0083 µM. Besides, in the series with hiPSC-CMs (hiPSC-CMs), the “Incidence of EADs” value is recorded as “incidence of EADs at the higher concentrations” and the “Maximal AP prolongation” value is at most 1000%. Besides, the IC50 against hERG channels worked out at 22.1 nM. Moreover, the Ki with hERG potassium channels was 5.7 ± 3 nM.
For `CN(CCOc1ccc(Cl)cc1)CCc1ccccc1` [Dofe41], in the series on hiPSC-CMs (setting [1]), the activity at 0.01 µM came out at 140%, the activity at 0.1 µM came to 144%, the activity at 0.3 µM was found to be 162% and the activity at 1 µM came to 262%. In addition, the EC (50% APD prolongation) with hiPSC-CMs (setting [2]) amounted to 0.157 µM. Further, the “Incidence of EADs” value in the series on hiPSC-CMs (hiPSC-CMs) is recorded as “without (if any) incidence of EADs”.
Consider `Cc1ccc(OCCN(C)CCc2ccccc2)cc1` [Dofe43], for which, in the series with hiPSC-CMs (setting [1]), the activity at 0.01 µM stood at 167%, the activity at 0.1 µM came to 156%, the activity at 0.3 µM amounted to 175% and the activity at 1 µM is 390%. The EC (50% APD prolongation) in the series with hiPSC-CMs (setting [2]) is 0.0993 µM. The “Incidence of EADs” value with hiPSC-CMs (hiPSC-CMs) was “without (if any) incidence of EADs”.
With `CCN(CCOc1ccc([N+](=O)[O-])cc1)CCc1ccc([N+](=O)[O-])cc1` [Dofe54], in the series with hiPSC-CMs (setting [4]), the activity at 0.001 µM came to 107%. For the same molecule, the activity at 0.03 µM with hiPSC-CMs (setting [6]) is 702%. Also, the activity at 0.1 µM in the series with hiPSC-CMs (setting [7]) worked out at 710%. Further, the EC (50% APD prolongation) with hiPSC-CMs (setting [9]) was 0.0043 µM. In addition, in the series on hiPSC-CMs (hiPSC-CMs), the “Incidence of EADs” value is reported as “incidence of EADs at the higher concentrations” and the “Maximal AP prolongation” value was at most 1000%. Moreover, at hERG channels, it took 2.6 ± 0.4 nM to reach half-maximal inhibition (IC50). For the same molecule, the inhibition constant Ki with hERG potassium channels (setting [3]) was 1.2 ± 0.6 nM.
For `O=[N+]([O-])c1ccc(CCN(CCF)CCOc2ccc([N+](=O)[O-])cc2)cc1` [Dofe60], in the series on hiPSC-CMs (setting [4]), the activity at 0.001 µM came to 95%. The activity at 0.01 µM in the series on hiPSC-CMs (setting [5]) was 112%. Moreover, in the series with hiPSC-CMs (setting [6]), the activity at 0.03 µM turned out to be 185%. Also, the activity at 0.1 µM in the series on hiPSC-CMs (setting [7]) is 771%. The activity at 0.3 µM in the series on hiPSC-CMs (setting [8]) is 413%. In addition, the EC (50% APD prolongation) with hiPSC-CMs (setting [9]) is 0.0213 µM. Besides, in the series on hiPSC-CMs (hiPSC-CMs), the “Incidence of EADs” value is on record as “incidence of EADs at the higher concentrations” and the “Maximal AP prolongation” value was at most 1000%.
For the molecule `CN(CCCOc1ccc([N+](=O)[O-])cc1)Cc1ccc([N+](=O)[O-])cc1` [Dofe78], in the series on hiPSC-CMs (setting [1]), the activity at 0.01 µM was 116%, the activity at 0.1 µM is 420%, the activity at 0.3 µM is 300% and the activity at 1 µM was 417%. In addition, the EC (50% APD prolongation) in the series with hiPSC-CMs (setting [2]) was 0.02 µM. For the same molecule, in the series on hiPSC-CMs (hiPSC-CMs), the “Incidence of EADs” value is reported as “incidence of EADs at the higher concentrations” and the “Maximal AP prolongation” value is reported as at most 1000%. Besides, on hERG channels, it took 28.2 ± 4.9 nM to reach half-maximal inhibition (IC50). In addition, in the series with hERG potassium channels (setting [3]), the inhibitory constant (Ki) was 5.1 ± 1.9 nM.
Take `CN(CCCCOc1ccc([N+](=O)[O-])cc1)CCc1ccc([N+](=O)[O-])cc1` [Dofe81]: in the series with hiPSC-CMs (setting [4]), the activity at 0.001 µM turned out to be 117%. Further, the activity at 0.01 µM with hiPSC-CMs (setting [5]) was determined as 389%. In the series on hiPSC-CMs (setting [6]), the activity at 0.03 µM is 858%. Moreover, the EC (50% APD prolongation) with hiPSC-CMs (setting [9]) is 0.0025 µM. For the same molecule, in the series with hiPSC-CMs (hiPSC-CMs), the “Incidence of EADs” value is “incidence of EADs at the higher concentrations” and the “Maximal AP prolongation” value is given as at most 1000%. For the same molecule, at hERG channels, the IC50 stood at 10.7 nM. The Ki in the series on hERG potassium channels is 1.8 ± 1.6 nM.
With `CN(CCOc1ccc(NS(C)(=O)=O)cc1)CCc1ccc(NS(C)(=O)=O)cc1` [Dofetilide, reference compound], the “Spontaneous rate of myocyte contraction” value in the series with hiPSC-CMs (100 nM, hiPSC-CMs) was “dramatically increased”. Moreover, the activity at 0.0001 µM in the series on hiPSC-CMs (Homo sapiens, 0.5 h, read-out: Changes in APD90 in hiPSC-CMs, 0.1 nM, 30 min exposure) was 191%. Moreover, in the series on hiPSC-CMs (setting [4]), the activity at 0.001 µM turned out to be 246%. Further, the activity at 0.01 µM in the series with hiPSC-CMs (setting [5]) was determined as 641%. For the same molecule, the activity at 0.03 µM in the series with hiPSC-CMs (setting [6]) amounted to 827%. The EC (50% APD prolongation) with hiPSC-CMs (setting [2]) amounted to 4e-05 µM. Further, the “Incidence of EADs” value with hiPSC-CMs (hiPSC-CMs) was “incidence of EADs at concentrations of 10, 30 and 100 nM”. For the same molecule, in the series with hERG potassium channels, the inhibitory constant (Ki) was 4.1 ± 0.9 nM.
